Where a SMILES comes first, the peptide text is derived from it. [ ]: non-standard residue; d: D form. ξ: configuration not given here. Ala(6-(2-MePh)pyridin-3-yl) = Cc1ccccc1-c1ccc(C[C@H](N)C(=O)O)cn1; Bip(2'-Et-4'-OMe) = CCc1cc(OC)ccc1-c1ccc(C[C@H](N)C(=O)O)cc1; Bip(2'-Me) = Cc1ccccc1-c1ccc(C[C@H](N)C(=O)O)cc1; αMePhe(2-F) = C[C@](N)(Cc1ccccc1F)C(=O)O; ξαMePhe(2-F) = CC(N)(Cc1ccccc1F)C(=O)O; Thr(3ξ) = CC(O)[C@H](N)C(=O)O; ξαMeP = CC1(C(=O)O)CCCN1; Aib = CC(C)(N)C(=O)O
How the values were obtained:
Type in all cases: in vivo
ob/ob mice = test: intraperitoneal glucose tolerance test (ipGTT) after sc injection in ob/ob mice (plasma glucose, insulin); details: for % AUC Reduction in Plasma Glucose in an IP Glucose Tolerance Test after SC Injection of Compound: 10 nmol/kg, vs vehicle group; for effect on postprandial plasma glucose (in words): ipGTT 0-180 or 210 min; for Potency in ob/ob mice, ED50: sc injection, ipGTT, plasma glucose AUC
Procedure: (§1) Peptides were dissolved in an appropriate vehicle at a concentration in nmol/ml equivalent to the dose that was to be administered in nmol/kg so that each mouse would receive the same volume/weight of dosing solution. Male C57BL/6J-ob/ob mice (10 weeks old) were randomized into groups of 6 mice per group based on fed plasma glucose and body weight. After an overnight fast, mice were weighed and placed in the experimental lab. After 30 min in the environment, the mice were bled via tail tip at −30 min and immediately injected subcutaneously (sc) with vehicle or the peptide dissolved in vehicle (0.1 ml solution/100 g body weight). At time 0 the mice were bled and then injected intraperitoneally with 50% glucose (2 g/kg) to initiate the intraperitoneal glucose tolerance test (ipGTT). The mice were bled 30, 60, 120 and 180 min after the glucose injection. Blood samples were drawn into potassium EDTA, placed on ice during the study and subsequently centrifuged for 10 min at 3000 rpm at 4° C. Plasma samples were diluted 11-fold for glucose analysis in the Cobas System. Another 5 μl plasma sample was diluted 5-fold with 20 μl of Sample Diluent (Insulin ELISA assay kit, Crystal Chem Inc.) and stored at −20° C. for subsequent analysis using the Ultra Sensitive Mouse Insulin ELISA kit (Crystal Chem Inc.).

[1] = Dog pharmacokinetic study (iv and sc, solution vehicles); details: vehicle propylene glycol/pH 7.4 phosphate buffer (1:1); for AUC: male, beagle, dog, plasma, sc, 67 ug/kg, Table II, read-out: Exposure in dogs (sc@67 μg/kg)
Procedure: The pharmacokinetic parameters of the compound of SEQ ID NO:9 were determined in male beagle dogs (n=4, 14±1 kg). Following an overnight fast, each animal received the compound of SEQ ID NO:9 either as an intravenous bolus via femoral vein (67 μg/kg) or by subcutaneous injection given at near the shoulder blades (67 μg/kg). Each animal received both intravenous and subcutaneous doses with a one-week washout between doses following a crossover design. […] Serial blood samples were collected in EDTA-containing microcentrifuge tubes at predose, 0.083, 0.25, 0.5, 0.75, 1, 2, 4, 6, 8, 24, and 30 hours post-dose after intravenous administration; at predose, 0.25, 0.5, 0.75, 1, 2, 4, 6, 8, 24, and 30 hours post-dose after subcutaneous administration. Approximately 0.3 mL of blood was collected at each time point. Blood samples were immediately centrifuged at 4° C. The obtained plasma was frozen with dry ice and stored at −20° C. Plasma drug levels were determined using the LC-MS/MS assay described above.
Plasma samples from in vivo dog study were prepared for analysis by precipitating plasma proteins with two volumes of acetonitrile containing an internal standard. The samples were vortex mixed and removed the precipitated proteins by centrifugation. The resulting supernatants were transferred to a 96-well plate and 10 μL were injected for analysis. Samples were prepared with the Packard Multiprobe II and Quadra 96 Liquid Handling System.
The HPLC system consisted of two Shimadzu LC10AD pumps (Columbia, Md.), a CTC PAL autosampler (Leap Technologies, Switzerland). The column used was a YMC Hydrosphere C18 (2.0×50 mm, 3 μm) (YMC, Inc., Milford, Ma.). The column temperature was maintained at 50° C. and the flow rate was 0.3 mL/minute. The mobile phase A consisted of 10 mM ammonium formate and 0.1% formic acid in water and mobile phase B consisted of 0.1% formic acid in acetonitrile. The initial mobile phase composition was 5% B, and remained at 5% B for one minute to equilibrate the column. The composition was ramped to 95% B over two minutes and held there for one additional minute. The mobile phase was then returned to initial conditions in one minute. Total analysis time was five minutes. A switching valve was used. The eluents between 0-1 minute were diverted to the waste.
The HPLC was interfaced to a Sciex API 4000 mass spectrometer, (Applied Biosystems, Foster City, Calif.) and was equipped with a TurboIonspray ionization source. Ultra high purity nitrogen was used as the nebulizing and turbo gas. The temperature of turbo gas was set at 300° C. and the interface heater was set at 60° C. Data acquisition utilized selected reaction monitoring (SRM). Ions representing the (M+2H)^2+ species for the compound of SEQ ID NO:9, and (M+2H)^2+ for BMS-501143 (IS) were selected in Q1 and were collisionally dissociated with high purity nitrogen at a pressure of 3.5×10^−3torr to form specific product ions which were subsequently monitored by Q3.
The standard curve concentrations, ranging from 1 to 1000 nM and from 4 to 5000 nM, were used for the in vivo samples obtained from low and high doses, respectively. The curves were fitted with a quadratic regression weighted by reciprocal […]. Standards were analyzed in duplicate. Quality control (QC) samples, prepared in blank matrix at the same concentrations as the standard were also analyzed in each analytical set. For the compound of SEQ ID NO:9, the calculated concentrations of more than 80% of the QCs were within 20% of nominal concentration, indicating acceptable assay performance.
The compound of SEQ ID NO:9 plasma concentration vs. time data were analyzed by noncompartmental methods using the […]™ software program. The Cmax and Tmax values were recorded directly from experimental observations. The AUC0-n and AUCtot values were calculated using a combination of linear and log trapezoidal summations. […]

[2] = Exposure during ipGTT in ob/ob mice; details: sc
Procedure: as §1

Row | AUC [1] [µM·h] | Exposure/dose during ipGTT in ob/ob mice [2] [nM * h/nmol/kg] | Exposure in dogs (sc@67 μg/kg) ([1]; Table I) [µM·h] | Compound | % AUC Reduction in Plasma Glucose in an IP Glucose Tolerance Test after SC Injection of Compound (ob/ob mice; ob/ob mice) | plasma glucose AUC decrease (ob/ob mice; ob/ob mice, sc, 30 nmol/kg) [%] | effect on postprandial plasma glucose (in words) (ob/ob mice; ob/ob mice, sc) | Potency in ob/ob mice, ED50 (ob/ob mice) | Potency in ob/ob mice, ED50 (ob/ob mice; listed as compound I) [nmol/kg]
1 | 4.02 | 4.4 | – | CCc1cc(OC)ccc1-c1ccc(C[C@H](NC(=O)[C@H](CC(=O)O)NC(=O)[C@H](CO)NC(=O)[C@@H](NC(=O)C(C)(Cc2ccccc2F)NC(=O)[C@@H](NC(=O)CNC(=O)[C@H](CCC(=O)O)NC(=O)C2(C)CCCN2C(=O)[C@@H](N)Cc2c[nH]cn2)[C@@H](C)O)[C@@H](C)O)C(=O)N[C@@H](Cc2ccc(-c3ccccc3C)nc2)C(N)=O)cc1 (stereo partly shown) [SEQ ID NO: 118] (H-H[ξαMeP]EGT[ξαMePhe(2-F)]TSD[Bip(2'-Et-4'-OMe)][Ala(6-(2-MePh)pyridin-3-yl)]-NH2) | −70% (p < 0.001) | 81 | statistically significant decrease | 2.5 nmol/kg | –
2 | 0.089 | 22 | 0.089 | CCc1cc(OC)ccc1-c1ccc(C[C@H](NC(=O)[C@H](CC(=O)O)NC(=O)[C@H](CO)NC(=O)[C@@H](NC(=O)[C@](C)(Cc2ccccc2F)NC(=O)[C@@H](NC(=O)CNC(=O)[C@H](CCC(=O)O)NC(=O)C(C)(C)NC(=O)[C@@H](N)Cc2c[nH]cn2)C(C)O)C(C)O)C(=O)N[C@@H](Cc2ccc(-c3ccccc3C)cc2)C(N)=O)cc1 (stereo partly shown) [Compound I, reference compound] (H-H[Aib]EG[Thr(3ξ)][αMePhe(2-F)][Thr(3ξ)]SD[Bip(2'-Et-4'-OMe)][Bip(2'-Me)]-NH2) | −15% (p = 0.247, NS) | – | decreasing in a dose-dependent manner | ED50 = 50 nmoles/kg | 50

From US7534763B2 (Bristol-Myers Squibb Company, priority 2004, dated 2009)
